# Laboratory results taken from patent US20030059511A1, “Sweetener compositions and uses thereof” (AJINOMOTO CO., INC., priority 1999, published 2003).
# Experiments:
# Format in all cases: in vivo, human
# [1] = Taste characteristics in a cola drink (9 items, similarity index vs cola drink containing 10% sucrose); conditions: non-carbonated cola drink, PSE 10%, vs cola drink with 10% sucrose; smaller = closer to sucrose; 8 panelists
# Method: The following experiments were performed in the same way as that of Example 2. Instead of aqueous solution, the cola drink of each of derivatives 1 to 9 having a sweetness level equivalent to that of PSE 10% was prepared, and compared with the cola drink containing 10% sucrose. The evaluation method and so on were same as that of Example 2.
# When carbon dioxide is blown in the cola drink, the carbonated cola drink is prepared, however, the taste of the cola drink can be compared more easily in that without carbon dioxide. Thus the sensory evaluation of non-carbonated cola drink was performed.
# The composition of the cola drink employed was same as that of Example 1.
# (§1) The similarity indexes were calculated as those of aqueous solutions. The smaller the similarity index becomes, the better the taste balances, and the closer the taste is to the taste characteristics (quality) of sucrose. The total taste becomes preferable. The similarity indexes of each derivatives are shown as follows. […]
# The following experiments were conducted in the same way as that of Example 15. Instead of aqueous solution, the cola drink of each of derivatives 1 to 9 having a sweetness level equivalent to that of PSE 10% was prepared, and compared with the cola drink containing 10% sucrose. All of the evaluation method and so on were same as those of Example 15.
# When carbon dioxide is blown in the cola drink, the carbonated cola drink is prepared, however, the taste of the cola drink can be compared more easily in that without carbon dioxide. Thus the non-carbonated cola drink was organoleptically evaluated.
# The composition of the cola drink employed was same as that of Example 14.
# as §1, with “(quality)of” for “(quality) of”, “each of the” for “each”
# [2] = Taste characteristics in an aqueous solution (9 items, similarity index vs aqueous 10% sucrose solution); conditions: PSE 10%, smaller = closer to sucrose, 8 panelists
# Method: The following experiments were performed using the water obtained by ion exchanging and further distilling the water.
# An aqueous solution of each of derivatives 1 to 9 having a sweetness level equivalent to that of PSE 10% was prepared, and compared with aqueous 10% sucrose solution with respect to the following 9 items, i.e., “onset of the taste”, “round taste”, “clear taste”, “lingering taste”, “peculiar taste”, “heavy taste”, “bitter taste”, “astringent taste” and “irritation”. The results were determined as 5 levels (−2 point: very weak, −1 point: a little weak, 0 point: same, +1 point: a little strong, +2 point: very strong) by 8 panelists, and the average points were calculated. The sample solutions of the derivatives equivalent to PSE 10%, were prepared by using the magnification of sweetness intensity measured in Example 1, and the amounts of each derivatives to be used were as follows.
# Next, the total of the absolute value of the deviation from sucrose in each of the evaluation items consisting of the onset of the taste, the round taste, the clear taste, the lingering taste, the peculiar taste, the heavy taste, the bitter taste, the astringent taste and the irritation was divided by 9 (total number of items) to calculate the similarity (which is referred to as “similarity index”). The smaller the similarity index becomes, the better the taste balances, and the closer the taste is to the taste characteristics (quality) of sucrose. The total taste becomes preferable. The similarity indexes of each derivatives are shown as follows.
# To the aqueous solution of derivative 1 having a sweetness level equivalent to that of PSE 10%, salt was added as final concentratins of 0.1%, 0.2% and 0.5% to compare with the aqueous solution of 10% sucrose for by 2 points comparison method (n=8) and evaluate the characteristics of the taste.
# The sensory evaluation was performed by the same way as Example 6.
# The following experiments were conducted using the water obtained by ion exchanging and further distilling tap water.
# An aqueous solution of each of derivatives 1 to 9 having a sweetness level equivalent to that of PES 10% was prepared, and compared with aqueous 10% sucrose solution with respect to 9 items, namely, “the onset of the taste”, “round taste”, “clear taste”, “lingering taste”, “peculiar taste”, “heavy taste”, “bitter taste”, “astringent taste” and “irritation”. The results were determined as 5 levels (−2 point: very weak, −1 point: a little weak, 0 point: same, +1 point: a little strong, +2 point: very strong) by 8 panelists, and the average points were calculated.
# Next, the total of the absolute value of the deviation from sucrose in each of the evaluation items consisting of onset of the taste, round taste, clear taste, lingering taste, peculiar taste, heavy taste, bitter taste, astringent taste and irritation was divided by 9 (total number of items) to calculate the similarity (which is refer to as “similarity index”). The smaller the similarity index becomes, the better the taste balances, and the closer the taste is to the taste characteristics (quality) of sucrose. The total taste becomes preferable. The similarity indexes of each of the derivatives are shown as follows.
# [3] = Equivalent concentration of bitter taste (Example 30), calcium lactate; conditions: derivative 4 2.2 ppm; calcium lactate 1500 ppm; no addition 0.054
# Method: (§2) With respect to the solution produced by adding derivative 1 (the product of the present invention), or adding nothing (no addition; the reference product) in the concentration shown in the following table 4 to the amino acid solution (2% solution of arginine by weight), the sensory evaluation was performed (using 10 panelists), and the equivalent concentration of bitter taste was determined. The results were shown in the table 4, wherein the equivalent concentration of bitter taste was shown in the concentration of aqueous solution of anhydrous caffeine which is a substance of bitter taste.
# (§3) With respect to the solution produced by adding derivative 4 (2.2 ppm) to each of the substances of Quinine sulfate (39 ppm), anhydrous caffeine (2000 ppm), ferrous citrate (50 ppm), calcium lactate (1500 ppm), and thiamine hydrochloride (5000 ppm) (the product of the present invention), or adding nothing thereto (no addition; the reference product) the reference product (no addition), the sensory evaluation was performed (using 10 panelists), and the equivalent concentration of bitter taste was determined in the same way as that described in Example 28, and shown in table 6.
# [4] = Equivalent concentration of bitter taste (Example 30), ferrous citrate; conditions: derivative 4 2.2 ppm; ferrous citrate 50 ppm; no addition 0.027
# Method: as §2, §3
# [5] = Equivalent concentration of bitter taste (Example 30), anhydrous caffeine; conditions: derivative 4 2.2 ppm; anhydrous caffeine 2000 ppm; no addition 0.205
# Method: as §2, §3
# [6] = Equivalent concentration of bitter taste (Example 30), Quinine sulfate; conditions: derivative 4 2.2 ppm; Quinine sulfate 39 ppm; no addition 0.084
# Method: as §2, §3
# [7] = Equivalent concentration of bitter taste, sensory evaluation, arginine solution (Example 28); conditions: 2% arginine solution; addition 4.4 ppm; as concentration of anhydrous caffeine; 10 panelists; no addition 0.131
# Method: as §2
Structure (SMILES),Similarity index [1],Similarity index [2],"Equivalent concentration of bitter taste (Amount of anhydrous caffeine g/100 g), Calcium lactate [3] [g/100 g]","Equivalent concentration of bitter taste (Amount of anhydrous caffeine g/100 g), Ferrous citarte [4] [g/100 g]","Equivalent concentration of bitter taste (Amount of anhydrous caffeine g/100 g), Caffeine (anhydrous) [5] [g/100 g]","Equivalent concentration of bitter taste (Amount of anhydrous caffeine g/100 g), Quinine sulfate [6] [g/100 g]",Equivalent concentration of bitter taste [7] [g/100 g]
"COC(=O)[C@H](Cc1ccccc1)NC(=O)[C@H](CC(=O)O)NCCC(C)(C)c1ccc(O)cc1 [Derivative 6, N-[N-[3-(4-hydroxyphenyl)-3-methylbutyl]-L-α-aspartyl]-L-phenylalanine 1-methyl ester]",0.81,0.93,–,–,–,–,–
"COC(=O)[C@H](Cc1ccccc1)NC(=O)[C@H](CC(=O)O)NCCC(C)(C)c1ccc(O)c(C)c1 [Derivative 4, N-[N-[3-(3-methyl-4-hydroxyphenyl)-3-methylbutyl]-L-α-aspartyl]-L-phenylalanine 1-methyl ester]",1.04,0.93,0.025,0.020,0.045,0.025,–
"COC(=O)[C@H](Cc1ccccc1)NC(=O)[C@H](CC(=O)O)NCCCc1ccc(O)c(C)c1 [Derivative 8, N-[N-[3-(3-methyl-4-hydroxyphenyl)propyl]-L-α-aspartyl]-L-phenylalanine 1-methyl ester]",1.00,0.77,–,–,–,–,–
"COC(=O)[C@H](Cc1ccccc1)NC(=O)[C@H](CC(=O)O)NCCCc1ccc(OC)cc1 [Derivative 2, N-[N-[3-(4-methoxyphenyl)propyl]-L-α-aspartyl]-L-phenylalanine 1-methyl ester]",0.80,0.63,–,–,–,–,–
"COC(=O)[C@H](Cc1ccccc1)NC(=O)[C@H](CC(=O)O)NCCCc1ccc(OC)c(O)c1 [Derivative 1, N-[N-[3-(3-hydroxy-4-methoxyphenyl)propyl] -L-α-aspartyl]-L-phenylalanine 1-methyl ester]",0.78,1.17,–,–,–,–,0.060
